Measurements: patent US20250213614A1, “Modified RELA Protein for Inducing Interferon Expression and Engineered Immune Cells with Improved Interferon Expression” (Institut Curie, priority 2022, published 2025)

What was measured:
Type in all cases: cell-based, human
[1] = tested on: MDDC; assay: IFN-I/III quantification (LEGENDplex) in MDDC after STING stimulation
Method: (§1) Plasmapheresis blood pockets were obtained from healthy adult volunteers after informed consent from the EFS (Establishment of French blood collection). Peripheral blood mononuclear cells (PBMCs) were isolated using Ficoll-Paque Plus (GE-17144003) and left overnight at 4° C. in RPMI (Thermo fischer #61870-010) with 10% heat-decomplemented fetal bovine serum (FBS, Eurobio #CVFSVFO0-01). CD14+ cells were enriched by positive selection (Miltenyi #130-050-201), the CD14 negative fraction was subsequently used to isolate total CD4+ T cells by negative selection (Stem Cell #17952). CD14+ cells were cultured in RPMI containing 10% FBS, 5% Penicillin-Streptomycin (PS, Thermo Fisher #10378-016), 50 μg/ml Gentamicin (Thermo Fisher #15750-045) and 10 mM HEPES (Thermo Fisher #15630-056). CD14+ cells were differentiated ex vivo into MDDC by supplementing the culture media with 50 ng/ml IL-4 (Miltenyi #130-093-922) and 10 ng/ml GM-CSF (Miltenyi #130-093-867). MDDC were used for experiments 3 or 4 days following the start of the culture. CD14+ cells were differentiated ex vivo into macrophages by adding 50 ng/ml MCSF (Miltenyi #130-096-492) to the culture media containing RPMI with 1% PS, 5% FBS and 5% human serum (Sigma #H4522). MDM were used 7 days following culture. Freshly isolated CD4+ T cells were cultured in X-VIVO 15 (Lonza #BE02-060F) and activated using anti-CD3 and anti-CD28 Dynabeads (fisher scientific #10548353) at the ratio of 1:5 (bead:cell). 100 U/ml human IL-2 (Immunotools #11340027) was added to cultures 2 days following TCR stimulation and media with IL-2 was replenished every 48 hours. To assess proliferation, freshly isolated CD4+ T cells were stained with cell proliferation dye (thermo fischer #65-0840-85) prior to TCR stimulation.
(§2) CD14+ cells were plated at 1 million cells/ml and transduced with equal volumes of freshly harvested SIV-VLPs and pTRIP-SFFV vectors in the presence of 8 μg/ml protamine (Sigma #P4020). CD4+ T cells were transduced with lentivectors 24 hours post-TCR stimulation in 100 μl of cells (0.2 million cells) and 100 μl of freshly harvested lentivirus in the presence of 8 μg/ml protamine. T cells were spinoculated at 1200 g for 2 hours at 25° C. 0.5 million THP-1 cells in 500 μl media (RPMI 10% FBS 1% PS) were transduced with 500 μl freshly harvested lentivirus in the presence of 8 μg/ml protamine. 1 μg/ml Puromycin (Invivogen #ant-pr-1) was added 2 days post-transduction when cells were transduced with pLKO.1-puro plasmid.
(§3) For stimulation of STING by extracellular ligands, 2.5 μg of ADUS100 (invivogen #tlrl-nacda2r-01) or 2′3′-cGAMP (cGAMP, invivogen #tlrl-nacga23-02) was added to 100,000 cells in 100 μl media either on freshly isolated primary cells or 3-4 days post differentiation for MDDC and 3 days post-TCR stimulation for CD4+ T cells. Cells and supernatant were harvested 18-24 hours post stimulation. For delivery of STING ligands after permeabilization, T cells were used 3 or 4 days post TCR stimulation and MDDC were used 3-4 days following differentiation. 150,000 cells were plated in round bottom 96-well plate. Media was removed by centrifugation and 20 μl 2× permeabilization buffer (100 mM HEPES, 200 mM KCl, 6 mM MgCl2, 0.2 mM DTT, 170 mM Sucrose, 2 mM ATP, 2 mM GTP, 0.4% bovine serum albumin (BSA), 20 μg/ml digitonin) and 20 μl cGAMP (12 μg/ml) was added to cells. 18 to 20 hours following stimulation supernatants and cells were harvested. Cells were stained with a fixable viability dye (Invitrogen #65-0865-14) and acquired on a FACSVerse (BD).
For experiments with conditioned media, CD4+ T cell- and MDDC-conditioned media refer to […] filtered conditioned media from cultures of activated CD4+ T cell and MDDC, respectively. CD4+ T cells were pretreated with 100 μl of MDDC-conditioned media or of fresh MDDC culture media, 24 hours prior to cGAMP stimulation. […]

[2] = tested on: cGAS; assay: cGAMP quantification by ELISA in CD4+ T cells; details: CD4+ T cells expressing RELA K5R or IRF3, FIG. 5B
Method: For cGAS stimulation, 2 μg of control GFP plasmid DNA (provided in the kit) was nucelofected in 2 million T cells 72 hours post TCR stimulation (Lonza #VPA-1002) using the programme T020 (Lonza #Nucleofector 2b). Cells were harvested at 4 hours and 24 hours after nucleofection for analysis.
Cell pellets were stored at −80° C. until extraction. Frozen pellets were fixed in 80% cold methanol and subjected to 5 freeze-thaw cycles in liquid nitrogen. Samples were then centrifuged at 16,000 g for 20 minutes at 4° C. The supernatants were further subjected to drying in Savant DNA Speed Vac DNA 110 at 65° C. for 2 hours. The pellets were resuspended in 100 μl RNase- and DNase-free water and cGAMP was quantified by ELISA as per manufacturers protocol (Interchim #501700). cGAMP quantity was normalized to cell numbers and represented as pg/million cells.

[3] = tested on: CD4+ T cells; assay: IFN-I/III quantification (LEGENDplex) in CD4+ T cells, baseline or after STING stimulation
Method: as §1, §2
as §3, with “(BD). […]” for “(BD).”
Where indicated, cells were treated with 5-Azacytidine (5AZA, Sigma #A2385) 48 hours prior to cGAMP stimulation. Fresh 5AZA was added daily to cells, and media was replenished with 5AZA following cGAMP stimulation. 100 nM Trichostatin A (TSA) (sigma #T1952) was added to cells following cGAMP stimulation and left overnight. […]

Molecule: RELA K5R: RELA mutant converting five lysine residues (K122, K123, K310, K314, K315) to arginine, expressed from lentivector
- increase in IFNλ1 at baseline ([1]; MDDC, monocyte-derived macrophages (MDM) or THP-1 cells, data not shown): not observed
- IFN-I/III response to cGAMP compared to the control condition ([1]; lentivector overexpression in MDDC, cGAMP 6 μg/ml, FIG. 2D): remained unchanged
- cellular cGAMP [2]: no significant increase
- expression of IFNλ1 and IRF7 ([3]; RELA K5R expressed in CD4+ T cells, no stimulation): sufficient to induce
- IFNλ1 after cGAMP stimulation ([3]; lentivector overexpression in CD4+ T cells, FIG. 2B, 2D, 2F): augmented in response to cGAMP
- IFNα2 in response to cGAMP ([3]; lentivector overexpression in CD4+ T cells, FIG. 2D, 2F): detectable
- baseline IFNλ1 expression ([3]; lentivector overexpression in CD4+ T cells, no cGAMP, FIG. 2D, 2F): increased baseline IFNλ1 expression

B1: IRF3: interferon Regulatory Factor 3, over-expressed from lentivector (protein, UniProt Q14653 1-427, looked up)
Interferon regulatory factor 3: MGTPKPRILPWLVSQLDLGQLEGVAWVNKSRTRFRIPWKHGLRQDAQQEDFGIFQAWAEATGAYVPGRDKPDLPTWKRNFRSALNRKEGLRLAEDRSKDPHDPHKIYEFVNSGVGDFSQPDTSPDTNGGGSTSDTQEDILDELLGNMVLAPLPDPGPPSLAVAPEPCPQPLRSPSLDNPTPFPNLGPSENPLKRLLVPGEEWEFEVTAFYRGRQVFQQTISCPEGLRLVGSEVGDRTLPGWPVTLPDPGMSLTDRGVMSYVRHVLSCLGGGLALWRAGQWLWAQRLGHCHTYWAVSEELLPNSGHGPDGEVPKDKEGGVFDLGPFIVDLITFTEGSGRSPRYALWFCVGESWPQDQPWTKRLVMVKVVPTCLRALVEMARVGGASSLENTVDLHISNSHPLSLTSDQYKAYLQDLVEGMDFQGPGES
- augmentation of cGAMP-mediated IFNλ1, IFNα2 and IFNβ production ([1]; IRF3 over-expression in MDDC, cGAMP 6 μg/ml, FIG. 3B): 10 fold
- cellular cGAMP [2]: no significant increase
- IFNα2 response to cGAMP ([3]; IRF3 over-expression alone in CD4+ T cells, FIG. 3B): only to a small extent
- IFNβ ([3]; IRF3 over-expression alone in CD4+ T cells, cGAMP, FIG. 3B): remained undetectable
